In the supplement of paper PMC11208160:

Assay: recombinant barcode read abundance after kanamycin selection (control-corrected) (log10(CPM+1)); higher = more efficient recombination; sequences stand for … in AGTGCAGAGAAAATCGGCCAGTTTTCTCTGCCTGCAGTCCGCATGCCGT…AGATTTATGCAGCGGACTGCCTTTCTCCCAAAGTGATAAACCGGACAGTATCATGGACCGGTTTTCCCGGTAATCCGTATTTGCAAGGTTGGTTTCACT; site = the 11-nt target
Method in brief: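 Recombination efficiency in this pooled E. coli screen uses counts per million of barcodes at recombinant junctions, averaged and corrected against the control. The reported form is log10(CPM+1). Two replicates were plated on chloramphenicol/ampicillin LB agar as control and two on chloramphenicol/ampicillin/kanamycin with 0.1 mM IPTG.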
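Also: IS621 recombinase and bridge RNA in Escherichia coli cells.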

Sequence | recombinant barcode read abundance (log10)
TAGGCTCCTTGGGTTCTAACCTGTTGCAT (site TAGGCTCCTAT) | 1.19
TAGGCTCCTTGGGTTCTAACCTGTTGCAT (site TAGGCTCCTCT) | 0.0701
TAGGCTCCTTGGGTTCTAACCTGTTGCAT (site TAGGCTCCTGT) | 0.0892
TAGGCTCCTTGGGTTCTAACCTGTTGCAT (site TAGGCTCCTTT) | 0.0761
TAGGGCACTTGGGTTCTAACCTGTTGCTG (site TAGGGCACTCA) | 2.1
TAGGGCACTTGGGTTCTAACCTGTTGCTG (site TAGGGCACTCG) | 0.888
TAGGGCGCTTGGGTTCTAACCTGTTGCCT (site TAAGGAGCTAG) | 0.204
TAGGGCGCTTGGGTTCTAACCTGTTGCCT (site TAGGGCGCTAG) | 1.01
TAGGTGCCTTGGGTTCTAACCTGTTGCAT (site TAGGTACCTAT) | 1.21
TAGGTGCCTTGGGTTCTAACCTGTTGCAT (site TAGGTCCCTAT) | 0.0424
TAGGTGCCTTGGGTTCTAACCTGTTGCAT (site TAGGTGCCTAT) | 1.79
TAGGTGCCTTGGGTTCTAACCTGTTGCAT (site TAGGTTCCTAT) | 0.167
TAGGTGCCTTGGGTTCTAACCTGTTGCGG (site TAGGTGACTCC) | 0.134
TAGGTGCCTTGGGTTCTAACCTGTTGCGG (site TAGGTGCCTCC) | 2.99
TAGTAAGCTTGGGTTCTAACCTGTTGCTG (site TAGTAAGCTCA) | 0.921
TAGTAAGCTTGGGTTCTAACCTGTTGCTG (site TAGTACGCTCT) | 0.142
TAGTACACTTGGGTTCTAACCTGTTGCAC (site ACCATGTCTCC) | 0.0598
TAGTACACTTGGGTTCTAACCTGTTGCAC (site TAGTACACTGT) | 1.55
TAGTACTCTTGGGTTCTAACCTGTTGCTA (site TAGTACTCTAA) | 0.0398
TAGTACTCTTGGGTTCTAACCTGTTGCTA (site TAGTACTCTCA) | 0.0859
TAGTACTCTTGGGTTCTAACCTGTTGCTA (site TAGTACTCTGA) | 0.164
TAGTACTCTTGGGTTCTAACCTGTTGCTA (site TAGTACTCTTA) | 1.58

Sequence | recombinant barcode read abundance (log10)
TAGTACTCTTGGGTTCTAACCTGTTGCTT (site TAGTACTCTAA) | 1.14
TAGTACTCTTGGGTTCTAACCTGTTGCTT (site TAGTACTCTCA) | 0.0325
TAGTACTCTTGGGTTCTAACCTGTTGCTT (site TAGTACTCTGA) | 0.199
TAGTACTCTTGGGTTCTAACCTGTTGCTT (site TAGTACTCTTA) | 0.0259
TAGTATCCTTGGGTTCTAACCTGTTGCGT (site TAGTATCCTAC) | 1.87
TAGTATCCTTGGGTTCTAACCTGTTGCGT (site TAGTCTCCTAC) | 0.0759
TAGTATCCTTGGGTTCTAACCTGTTGCGT (site TAGTGTCCTAC) | 0.0306
TAGTATCCTTGGGTTCTAACCTGTTGCGT (site TAGTTTCCTAC) | 0.21
TAGTCCACTTGGGTTCTAACCTGTTGCTA (site AAGTCCACTAA) | 0.239
TAGTCCACTTGGGTTCTAACCTGTTGCTA (site TAGTCCACTTA) | 1.15
TAGTCCGCTTGGGTTCTAACCTGTTGCCG (site TAGCCCTCTCG) | 0.214
TAGTCCGCTTGGGTTCTAACCTGTTGCCG (site TAGTCCGCTCG) | 0.446
TAGTCCTCTTGGGTTCTAACCTGTTGCTG (site TAGTCCTCTAA) | 0.048
TAGTCCTCTTGGGTTCTAACCTGTTGCTG (site TAGTCCTCTCA) | 1.02
TAGTCCTCTTGGGTTCTAACCTGTTGCTG (site TAGTCCTCTGA) | 0.14
TAGTCCTCTTGGGTTCTAACCTGTTGCTG (site TAGTCCTCTTA) | 0.185
TAGTCTTCTTGGGTTCTAACCTGTTGCGT (site AAGTATTCTAC) | 0.066
TAGTCTTCTTGGGTTCTAACCTGTTGCGT (site TAGTCTTCTAC) | 0.681
TAGTGGTCTTGGGTTCTAACCTGTTGCAT (site TAGTGGTCTAT) | 2.04
TAGTGGTCTTGGGTTCTAACCTGTTGCAT (site TAGTGGTCTTA) | 0.215
TAGTGTCCTTGGGTTCTAACCTGTTGCCA (site TAGTGTCCTTG) | 0.357
TAGTGTCCTTGGGTTCTAACCTGTTGCCA (site TGGTGTGCTTG) | 0.142

Sequence | recombinant barcode read abundance (log10)
TAGTGTGCTTGGGTTCTAACCTGTTGCGT (site TAGTGTGCTAA) | 0.0341
TAGTGTGCTTGGGTTCTAACCTGTTGCGT (site TAGTGTGCTAC) | 1.66
TAGTGTTCTTGGGTTCTAACCTGTTGCAT (site TAGTGTCCTAT) | 0.109
TAGTGTTCTTGGGTTCTAACCTGTTGCAT (site TAGTGTTCTAT) | 0.918
TAGTTAGCTTGGGTTCTAACCTGTTGCCA (site TAGTTAGCTAG) | 0.0117
TAGTTAGCTTGGGTTCTAACCTGTTGCCA (site TAGTTAGCTCG) | 0.17
TAGTTAGCTTGGGTTCTAACCTGTTGCCA (site TAGTTAGCTGG) | 0.0516
TAGTTAGCTTGGGTTCTAACCTGTTGCCA (site TAGTTAGCTTG) | 0.418
TAGTTCACTTGGGTTCTAACCTGTTGCAT (site TAGATCACTAT) | 0.0793
TAGTTCACTTGGGTTCTAACCTGTTGCAT (site TAGCTCACTAT) | 0.0603
TAGTTCACTTGGGTTCTAACCTGTTGCAT (site TAGGTCACTAT) | 0.159
TAGTTCACTTGGGTTCTAACCTGTTGCAT (site TAGTTCACTAT) | 0.382
TAGTTTACTTGGGTTCTAACCTGTTGCAG (site ACTCCAGCTAG) | 0.294
TAGTTTACTTGGGTTCTAACCTGTTGCAG (site TAGTTTACTCT) | 0.272
TAGTTTACTTGGGTTCTAACCTGTTGCCA (site TAGTTAACTTG) | 0.0268
TAGTTTACTTGGGTTCTAACCTGTTGCCA (site TAGTTCACTTG) | 0.109
TAGTTTACTTGGGTTCTAACCTGTTGCCA (site TAGTTGACTTG) | 0.0764
TAGTTTACTTGGGTTCTAACCTGTTGCCA (site TAGTTTACTTG) | 0.334
TATAAAACTTGGGTTCTAACCTGTTGCCT (site TATAAAACTAG) | 0.0338
TATAAAACTTGGGTTCTAACCTGTTGCCT (site TATACAACTAG) | 0.0401
TATAAAACTTGGGTTCTAACCTGTTGCCT (site TATAGAACTAG) | 0.0357
TATAAAACTTGGGTTCTAACCTGTTGCCT (site TATATAACTAG) | 0.697
